The results in this text go back to paper PMC6379670, “An ultra-high affinity ligand of HIV-1 TAR reveals the RNA structure recognized by P-TEFb” (Nucleic Acids Research, 2018).

Non-standard residues stand in square brackets, D forms with d. Residues, ends and D or L forms follow the SMILES beside them. hArg = N=C(N)NCCCC[C@H](N)C(=O)O; Orn = NCCC[C@H](N)C(=O)O; Dab = NCC[C@H](N)C(=O)O Some results are limits rather than exact numbers.

The first assay concerns the target HIV-1 TAR RNA. Format: binding. The following applies: EMSA, 32P radiolabeled HIV-1 TAR RNA, [RNA]=75pM; Table 1; read-out: K D (HIV). As for the experimental part: Electro Mobility Shift Assays (EMSA) and 2-aminopurine fluorescence ([35]) were used to measure peptide binding. For EMSA, all RNAs were 5′-dephosphorylated ([25],[26]) and 5′-rephosphorylated using T4 Polynucleotide Kinase (PNK); shifts were performed and analyzed as previously described ([14]). The P-TEFb/Tat1:57/AFF4 binding assays were run as described ([11]), with protein samples generously donated by Drs Ursula Schulze-Gahmen and James Hurley, but binding buffers contained 250× fold excess yeast tRNA. JB181-bound samples were prepared with 3× excess labeled HIV-TAR prior to titration with the pre-formed P-TEFb/Tat1:57/AFF4 complex.
Fig. S1. a) HIV-1 TAR, BIV TAR and 7SK-SL4 RNAs have similar secondary structures, but the JB181 peptide discriminates between them. […]
tightly than BIV TAR (3.3 nM) or 7SK (>3 μM) RNAs. b) EMSA of representative JB-peptides with 32P radiolabeled HIV-1 TAR RNA ([RNA]=75pM). The peptide concentration increases from left to right, as indicated. The dissociation constant can be estimated by the peptide concentration where there is an approximate 1:1 ratio (as established by visual inspection) between free RNA and complex, since the RNA concentration is much lower than the KD.
(1 picture or pasted object on this page, not shown here)
(A gel shift assay detects complexes by their altered migration in electrophoresis.)
With `CC[C@H](C)[C@@H]1NC(=O)[C@H](CCCNC(=N)N)NC(=O)[C@H](CCCNC(=N)N)NC(=O)CNC(=O)[C@H](CCCCN)NC(=O)[C@H](CCCNC(=N)N)NC(=O)[C@H]([C@@H](C)O)NC(=O)[C@H](CCCNC(=N)N)NC(=O)[C@H](C(C)C)NC(=O)[C@H](CCN)NC(=O)[C@@H]2CCCN2C(=O)[C@H]2CCCN2C(=O)[C@H](CC(C)C)NC(=O)[C@H](CCCNC(=N)N)NC1=O` [JB185] (cyclo([Dab]VRTRKGRRIRL[dP]P)), the Kd was 0.5 ± 0.1 nM.

Take `CC[C@H](C)[C@@H]1NC(=O)[C@H](CCCNC(=N)N)NC(=O)[C@H](CCCNC(=N)N)NC(=O)CNC(=O)[C@H](CCCCN)NC(=O)[C@H](CCCNC(=N)N)NC(=O)[C@H]([C@@H](C)O)NC(=O)[C@H](CCCNC(=N)N)NC(=O)[C@H](C(C)C)NC(=O)[C@H](CCCN)NC(=O)[C@@H]2CCCN2C(=O)[C@H]2CCCN2C(=O)[C@H]([C@@H](C)CC)NC(=O)[C@H](CCCNC(=N)N)NC1=O` [JB58] (cyclo([Orn]VRTRKGRRIRI[dP]P)): the Kd was determined as 3 ± 0.3 nM.

The assay is the same for the next values; noted with them: EMSA; positional scanning library, Table S1; with tRNA; read-out: Kd (nM) w/tRNA.
`CC[C@H](C)[C@@H]1NC(=O)[C@H](CCCNC(=N)N)NC(=O)[C@H](CCCNC(=N)N)NC(=O)CNC(=O)[C@H](CCCCN)NC(=O)[C@H](Cc2ccc(O)cc2)NC(=O)[C@H]([C@@H](C)O)NC(=O)[C@H](CCCNC(=N)N)NC(=O)[C@H](C(C)C)NC(=O)[C@H](CCCNC(=N)N)NC(=O)[C@@H]2CCCN2C(=O)[C@H]2CCCN2C(=O)[C@H]([C@@H](C)CC)NC(=O)[C@H](CCCNC(=N)N)NC1=O` [JB-68] (cyclo(RVRTYKGRRIRI[dP]P)): the Kd was above 1000 nM.

For the molecule `CC[C@H](C)[C@@H]1NC(=O)[C@H](CCCNC(=N)N)NC(=O)[C@H](CCCNC(=N)N)NC(=O)CNC(=O)[C@H](CCCCN)NC(=O)[C@H](CCCNC(=N)N)NC(=O)[C@H]([C@@H](C)O)NC(=O)[C@H](CCCNC(=N)N)NC(=O)[C@H](C(C)C)NC(=O)[C@H](CCCNC(=N)N)NC(=O)[C@@H]2CCCN2C(=O)[C@H]2CCCN2C(=O)[C@H]([C@@H](C)CC)NC(=O)[C@H](Cc2c[nH]c3ccccc23)NC1=O` [JB-79] (cyclo(RVRTRKGRRIWI[dP]P)), the Kd is above 1000 nM.

On to `CC[C@H](C)[C@@H]1NC(=O)[C@H](CCCNC(=N)N)NC(=O)[C@H](Cc2ccc(O)cc2)NC(=O)CNC(=O)[C@H](CCCCN)NC(=O)[C@H](CCCNC(=N)N)NC(=O)[C@H]([C@@H](C)O)NC(=O)[C@H](CCCNC(=N)N)NC(=O)[C@H](C(C)C)NC(=O)[C@H](CCCNC(=N)N)NC(=O)[C@@H]2CCCN2C(=O)[C@H]2CCCN2C(=O)[C@H]([C@@H](C)CC)NC(=O)[C@H](CCCNC(=N)N)NC1=O` [JB-69] (cyclo(RVRTRKGYRIRI[dP]P)), for which the Kd was above 1000 nM.

Consider `CC[C@H](C)[C@@H]1NC(=O)[C@H](CCCCN)NC(=O)[C@H](CCCNC(=N)N)NC(=O)CNC(=O)[C@H](CCCCN)NC(=O)[C@H](CCCNC(=N)N)NC(=O)[C@H]([C@@H](C)O)NC(=O)[C@H](CCCNC(=N)N)NC(=O)[C@H](C(C)C)NC(=O)[C@H](CCCNC(=N)N)NC(=O)[C@@H]2CCCN2C(=O)[C@H]2CCCN2C(=O)[C@H]([C@@H](C)CC)NC(=O)[C@H](CCCNC(=N)N)NC1=O` [JB-71] (cyclo(RVRTRKGRKIRI[dP]P)), for which the Kd was above 1000 nM.

As to `CC[C@H](C)[C@@H]1NC(=O)[C@H](CCCNC(=N)N)NC(=O)[C@H](CCCNC(=N)N)NC(=O)CNC(=O)[C@H](CCCCN)NC(=O)[C@H](CCCNC(=N)N)NC(=O)[C@H]([C@@H](C)O)NC(=O)[C@H](CCCNC(=N)N)NC(=O)[C@H](CC(=O)O)NC(=O)[C@H](CCCNC(=N)N)NC(=O)[C@@H]2CCCN2C(=O)[C@H]2CCCN2C(=O)[C@H]([C@@H](C)CC)NC(=O)[C@H](CCCNC(=N)N)NC1=O` [JB-64] (cyclo(RDRTRKGRRIRI[dP]P)), the Kd was above 1000 nM.

In the case of `CC[C@H](C)[C@@H]1NC(=O)[C@H](CCCNC(=N)N)NC(=O)[C@H](CCCNC(=N)N)NC(=O)CNC(=O)[C@H](CCCCN)NC(=O)[C@H](CCCNC(=N)N)NC(=O)[C@H]([C@@H](C)O)NC(=O)[C@H](CCCCNC(=N)N)NC(=O)[C@H](C(C)C)NC(=O)[C@H](CCCNC(=N)N)NC(=O)[C@@H]2CCCN2C(=O)[C@H]2CCCN2C(=O)[C@H]([C@@H](C)CC)NC(=O)[C@H](CCCNC(=N)N)NC1=O` [KP-Y-02] (cyclo(RV[hArg]TRKGRRIRI[dP]P)), the Kd was 200 nM.

For `CC[C@H](C)[C@@H]1NC(=O)[C@H](Cc2ccc(O)cc2)NC(=O)[C@H](CCCNC(=N)N)NC(=O)CNC(=O)[C@H](CCCCN)NC(=O)[C@H](CCCNC(=N)N)NC(=O)[C@H]([C@@H](C)O)NC(=O)[C@H](CCCNC(=N)N)NC(=O)[C@H](C(C)C)NC(=O)[C@H](CCCNC(=N)N)NC(=O)[C@@H]2CCCN2C(=O)[C@H]2CCCN2C(=O)[C@H]([C@@H](C)CC)NC(=O)[C@H](CCCNC(=N)N)NC1=O` [JB-73] (cyclo(RVRTRKGRYIRI[dP]P)), the Kd was above 1000 nM.

As to `CC[C@H](C)[C@@H]1NC(=O)[C@H](CCCNC(=N)N)NC(=O)[C@H](CCCNC(=N)N)NC(=O)CNC(=O)[C@H](CCCCN)NC(=O)[C@H](CCCNC(=N)N)NC(=O)[C@H]([C@@H](C)O)NC(=O)[C@H](CCCNC(=N)N)NC(=O)[C@H](C(C)C)NC(=O)[C@H](CCCNC(=N)N)NC(=O)[C@@H]2CCCN2C(=O)[C@H]2CCCN2C(=O)[C@H]([C@@H](C)CC)NC(=O)[C@H](Cc2ccc(O)cc2)NC1=O` [JB-78] (cyclo(RVRTRKGRRIYI[dP]P)), the Kd is above 1000 nM.

Consider `CC[C@H](C)[C@@H]1NC(=O)[C@H](CCCNC(=N)N)NC(=O)[C@H](CCCNC(=N)N)NC(=O)CNC(=O)[C@H](CCCCN)NC(=O)[C@H](CCCNC(=N)N)NC(=O)[C@H]([C@@H](C)O)NC(=O)[C@H](CCCNC(=N)N)NC(=O)[C@H](C(C)C)NC(=O)[C@H](CCCCNC(=N)N)NC(=O)[C@@H]2CCCN2C(=O)[C@H]2CCCN2C(=O)[C@H]([C@@H](C)CC)NC(=O)[C@H](CCCNC(=N)N)NC1=O` [KP-Y-01] (cyclo([hArg]VRTRKGRRIRI[dP]P)), for which the Kd came to 150 nM.

Take `CC[C@H](C)[C@@H]1NC(=O)[C@H](CCCNC(=N)N)NC(=O)[C@H](CCCNC(=N)N)NC(=O)CNC(=O)[C@H](CCCCN)NC(=O)[C@H](CCCCNC(=N)N)NC(=O)[C@H]([C@@H](C)O)NC(=O)[C@H](CCCNC(=N)N)NC(=O)[C@H](C(C)C)NC(=O)[C@H](CCCNC(=N)N)NC(=O)[C@@H]2CCCN2C(=O)[C@H]2CCCN2C(=O)[C@H]([C@@H](C)CC)NC(=O)[C@H](CCCNC(=N)N)NC1=O` [KP-Y-03] (cyclo(RVRT[hArg]KGRRIRI[dP]P)): the Kd worked out at 200 nM.

On to `CC[C@H](C)[C@@H]1NC(=O)[C@H](CCCNC(=N)N)NC(=O)[C@H](CCCNC(=N)N)NC(=O)CNC(=O)[C@H](CCCCN)NC(=O)[C@H](CCCNC(=N)N)NC(=O)[C@H]([C@@H](C)O)NC(=O)[C@H](CCCNC(=N)N)NC(=O)[C@H](C(C)C)NC(=O)[C@H](CCC(N)=O)NC(=O)[C@@H]2CCCN2C(=O)[C@H]2CCCN2C(=O)[C@H]([C@@H](C)CC)NC(=O)[C@H](CCCNC(=N)N)NC1=O` [JB-61] (cyclo(QVRTRKGRRIRI[dP]P)), for which the Kd was above 1000 nM.

In the case of `CC[C@H](C)[C@@H]1NC(=O)[C@H](CCCNC(=N)N)NC(=O)[C@H](CCCNC(=N)N)NC(=O)CNC(=O)[C@H](CCCCN)NC(=O)[C@H](CCCNC(=N)N)NC(=O)[C@H]([C@@H](C)O)NC(=O)[C@@H](CCCNC(=N)N)NC(=O)[C@H](C(C)C)NC(=O)[C@H](CCCNC(=N)N)NC(=O)[C@@H]2CCCN2C(=O)[C@H]2CCCN2C(=O)[C@H]([C@@H](C)CC)NC(=O)[C@H](CCCNC(=N)N)NC1=O` [JB-72] (cyclo(RV[dR]TRKGRRIRI[dP]P)), the Kd is above 1000 nM.

`CC[C@H](C)[C@@H]1NC(=O)[C@H](CCCNC(=N)N)NC(=O)[C@H](CCCCNC(=N)N)NC(=O)CNC(=O)[C@H](CCCCN)NC(=O)[C@H](CCCNC(=N)N)NC(=O)[C@H]([C@@H](C)O)NC(=O)[C@H](CCCNC(=N)N)NC(=O)[C@H](C(C)C)NC(=O)[C@H](CCCNC(=N)N)NC(=O)[C@@H]2CCCN2C(=O)[C@H]2CCCN2C(=O)[C@H]([C@@H](C)CC)NC(=O)[C@H](CCCNC(=N)N)NC1=O` [KP-Y-04] (cyclo(RVRTRKG[hArg]RIRI[dP]P)): the Kd was 75 nM.

`CC[C@H](C)[C@@H]1NC(=O)[C@H](CCCNC(=N)N)NC(=O)[C@H](CCCNC(=N)N)NC(=O)CNC(=O)[C@H](CCCCN)NC(=O)[C@H](CCC(N)=O)NC(=O)[C@H]([C@@H](C)O)NC(=O)[C@H](CCCNC(=N)N)NC(=O)[C@H](C(C)C)NC(=O)[C@H](CCCNC(=N)N)NC(=O)[C@@H]2CCCN2C(=O)[C@H]2CCCN2C(=O)[C@H]([C@@H](C)CC)NC(=O)[C@H](CCCNC(=N)N)NC1=O` [JB-67] (cyclo(RVRTQKGRRIRI[dP]P)): the Kd was above 1000 nM.

With `CC[C@H](C)[C@@H]1NC(=O)[C@H](Cc2c[nH]c3ccccc23)NC(=O)[C@H](CCCNC(=N)N)NC(=O)CNC(=O)[C@H](CCCCN)NC(=O)[C@H](CCCNC(=N)N)NC(=O)[C@H]([C@@H](C)O)NC(=O)[C@H](CCCNC(=N)N)NC(=O)[C@H](C(C)C)NC(=O)[C@H](CCCNC(=N)N)NC(=O)[C@@H]2CCCN2C(=O)[C@H]2CCCN2C(=O)[C@H]([C@@H](C)CC)NC(=O)[C@H](CCCNC(=N)N)NC1=O` [JB-74] (cyclo(RVRTRKGRWIRI[dP]P)), the Kd was above 1000 nM.
